We go through four compounds from publication PMC7034070, “Synthesis, anti-inflammatory, cytotoxic, and COX-1/2 inhibitory activities of cyclic imides bearing 3-benzenesulfonamide, oxime, and β-phenylalanine scaffolds: a molecular docking study” (Journal of Enzyme Inhibition and Medicinal Chemistry, 2020).

In general, IC50 refers to the concentration needed to halve the response being measured. The low end stands for greater potency in that assay, the high end for weaker potency in that assay. What is called melting point is the temperature, or range, at which the solid turns liquid. Broadly, the ED50 is the midpoint of the dose-response relation. Lower therefore signals an effect at a small dose.

Values joined by “and” are separate entries in the source; they are usually repeats but may differ in a detail not shown here. Identical values can stand only once.

Data set [1] deals with carrageenan induced rat paw oedema. Put plainly: rat carrageenan-induced foot paw oedema model. Conditions: for Mean % increase in paw weight ± SEM / % Inhibition of paw oedema from control group: 2 h after carrageenan; for Mean % increase in paw weight ± SEM: control group 165.6 ± 1.6; for % Inhibition of paw oedema from control group: single dose screen (Table 1). The format is in vivo. On the procedure: Anti-inflammatory assessment of the newly synthesised compounds was carried out using an in vivo rat carrageenan-induced foot paw oedema model, as reported previously[16]^,[17].
Background: In the carrageenan paw model, swelling and tenderness develop within hours.

Data set [2] concerns 59 cancer cell lines. In words: full NCI 59 cell line panel assay, single dose. The class given is cell-based. Conditions: one dose 10.0 μM, 59 cell lines.
The test system of data set [3] is NCI-H522 (NSC Lung Cancer). Put plainly: NCI 59 cell line panel, single dose. The format is cell-based. The settings on record: NCI-H522, one dose 10.0 μM.
The subject of data set [4] is CAKI-1 (Renal Cancer). Put plainly: NCI 59 cell line panel, single dose. Conditions: CAKI-1, one dose 10.0 μM. The format is cell-based.
Data set [5] relates to UO-31 (Renal Cancer). Put plainly: NCI 59 cell line panel, single dose. The format is cell-based. The settings on record: UO-31, one dose 10.0 μM.
Data set [6] deals with T1, COX-1 (Ovis aries, UniProt P05979).
T1 construct: purchased Cayman Chemicals Inc., Ann Arbour, MI
T1 sequence (P05979 25-600): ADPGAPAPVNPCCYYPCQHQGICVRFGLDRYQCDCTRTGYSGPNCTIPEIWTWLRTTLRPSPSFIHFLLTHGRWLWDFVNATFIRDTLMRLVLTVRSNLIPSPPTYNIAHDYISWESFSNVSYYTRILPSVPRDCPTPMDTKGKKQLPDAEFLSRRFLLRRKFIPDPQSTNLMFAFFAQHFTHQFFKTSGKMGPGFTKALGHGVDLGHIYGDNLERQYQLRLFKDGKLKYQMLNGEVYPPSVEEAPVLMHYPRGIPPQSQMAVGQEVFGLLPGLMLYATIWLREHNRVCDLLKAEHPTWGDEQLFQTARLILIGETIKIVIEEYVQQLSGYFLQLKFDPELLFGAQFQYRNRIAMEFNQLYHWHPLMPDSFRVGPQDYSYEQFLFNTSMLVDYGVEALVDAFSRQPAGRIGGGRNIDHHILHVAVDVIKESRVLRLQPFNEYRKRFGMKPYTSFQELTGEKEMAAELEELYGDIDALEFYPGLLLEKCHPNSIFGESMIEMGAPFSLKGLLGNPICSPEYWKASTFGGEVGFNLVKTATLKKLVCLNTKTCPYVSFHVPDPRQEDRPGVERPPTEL
Put plainly: colorimetric COX (ovine) inhibitor screening assay kit. The settings on record: ovine COX-1, mean of two determinations. The format is biochemical. An excerpt: (§1) To determine the relative ability of the test compounds and reference drugs to inhibit COX-1/COX-2 isozymes, we used the colorimetric COX (ovine) inhibitor screening assay kit (Cayman Chemicals Inc., Ann Arbour, MI), according to the manufacturer’s instructions[3]^,[10]^,[11]^,[20].

In data set [7] the target is T2, COX-2 (Ovis aries, UniProt P79208).
T2 construct: purchased Cayman Chemicals Inc., Ann Arbour, MI
T2 sequence (P79208 17-603): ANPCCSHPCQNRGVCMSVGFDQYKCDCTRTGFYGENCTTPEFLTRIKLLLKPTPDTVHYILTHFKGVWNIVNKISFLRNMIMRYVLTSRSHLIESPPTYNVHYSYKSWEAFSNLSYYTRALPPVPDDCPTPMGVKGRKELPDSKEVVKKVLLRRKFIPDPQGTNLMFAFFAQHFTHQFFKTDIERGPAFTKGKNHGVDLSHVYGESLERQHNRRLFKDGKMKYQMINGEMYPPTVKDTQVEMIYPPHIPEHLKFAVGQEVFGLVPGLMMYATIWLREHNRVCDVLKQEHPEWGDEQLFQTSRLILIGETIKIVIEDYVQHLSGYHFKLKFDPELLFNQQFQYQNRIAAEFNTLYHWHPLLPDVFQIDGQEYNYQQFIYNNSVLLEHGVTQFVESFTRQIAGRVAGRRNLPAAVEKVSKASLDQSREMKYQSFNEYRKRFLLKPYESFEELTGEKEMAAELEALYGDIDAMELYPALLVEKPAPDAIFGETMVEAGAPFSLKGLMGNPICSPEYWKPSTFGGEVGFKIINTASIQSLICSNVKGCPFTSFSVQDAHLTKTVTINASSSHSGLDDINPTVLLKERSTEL
The data set is described as above. The format is biochemical. The settings on record: for SI, selectivity index (COX-1 IC50/COX-2 IC50): ovine COX-1/COX-2; for IC50: ovine COX-2, mean of two determinations.
Excerpt: as §1

Data set [8] deals with mice. Put plainly: Ulcerogenicity measurement. The format is in vivo. On the procedure:
Ulcerogenicity was evaluated according to a previously reported method[6]^a,[17]^,[18]. The number and total length of the ulcers for each animal were measured and their averages were calculated and used as the ulcer indices.

The subject of data set [9] is HL-60(TB) (Leukaemia). In words: NCI 59 cell line panel, single dose. The format is cell-based. The settings on record: one dose 10.0 μM.
In data set [10] the test system is TK-10 (Renal Cancer). Put plainly: NCI 59 cell line panel, single dose. The format is cell-based. The settings on record: TK-10, one dose 10.0 μM.
Data set [11] has as its system HOP-92 (NSC Lung Cancer). Put plainly: NCI 59 cell line panel, single dose. The class given is cell-based. The settings on record: HOP-92, one dose 10.0 μM.
Data set [12] deals with NCI-H322M (NSC Lung Cancer). Put plainly: NCI 59 cell line panel, single dose. The format is cell-based. The settings on record: one dose 10.0 μM.
In data set [13] the test system is PC-3 (Prostate Cancer). Put plainly: NCI 59 cell line panel, single dose. The format is cell-based. Conditions: PC-3, one dose 10.0 μM.
For data set [14], the system named is MOLT-4 (Leukaemia). Put plainly: NCI 59 cell line panel, single dose. Conditions: MOLT-4, one dose 10.0 μM.
For data set [15], the system named is PRMI-8226 (Leukaemia). In words: NCI 59 cell line panel, single dose. The settings on record: PRMI-8226, one dose 10.0 μM.
For data set [16], the system named is SR (Leukaemia). In words: NCI 59 cell line panel, single dose. Conditions: one dose 10.0 μM.
The test system of data set [17] is EKVX (NSC Lung Cancer). In words: NCI 59 cell line panel, single dose. The settings on record: one dose 10.0 μM.
Data set [18] concerns NCI-H226 (NSC Lung Cancer). In words: NCI 59 cell line panel, single dose. Conditions: NCI-H226, one dose 10.0 μM.
The subject of data set [19] is NCI-H23 (NSC Lung Cancer). In words: NCI 59 cell line panel, single dose. The settings on record: NCI-H23, one dose 10.0 μM.
Excerpt: (§2) These cell lines were obtained from nine different organs including leukaemia, non-small cell lung, colon, CNS, melanoma, ovarian, renal, prostate, and breast[19].
The test system of data set [20] is HCT-116 (Colon Cancer). Put plainly: NCI 59 cell line panel, single dose. The settings on record: HCT-116, one dose 10.0 μM.
Excerpt: as §2
Data set [21] relates to HCT-15 (Colon Cancer). Put plainly: NCI 59 cell line panel, single dose. The settings on record: HCT-15, one dose 10.0 μM.
Excerpt: as §2
The subject of data set [22] is HT29 (Colon Cancer). Put plainly: NCI 59 cell line panel, single dose. The settings on record: HT29, one dose 10.0 μM.
Excerpt: as §2
For data set [23], the system named is SF-295 (CNS Cancer). In words: NCI 59 cell line panel, single dose. The settings on record: SF-295, one dose 10.0 μM.
Excerpt: as §2
Data set [24] concerns SF-539 (CNS Cancer). In words: NCI 59 cell line panel, single dose. The settings on record: SF-539, one dose 10.0 μM.
Excerpt: as §2
For data set [25], the system named is U251 (CNS Cancer). In words: NCI 59 cell line panel, single dose. The settings on record: U251, one dose 10.0 μM.
Excerpt: as §2
In data set [26] the test system is LOX IMVI (Melanoma). In words: NCI 59 cell line panel, single dose. Conditions: one dose 10.0 μM.
Excerpt: as §2
Data set [27] deals with A498 (Renal Cancer). Put plainly: NCI 59 cell line panel, single dose. The settings on record: A498, one dose 10.0 μM.
Excerpt: as §2
In data set [28] the test system is DU-145 (Prostate Cancer). Put plainly: NCI 59 cell line panel, single dose. Conditions: DU-145, one dose 10.0 μM.
Excerpt: as §2
The subject of data set [29] is MDA-MB-231/ATCC (Breast Cancer). In words: NCI 59 cell line panel, single dose. Conditions: one dose 10.0 μM.
For data set [30], the system named is T-47D (Breast Cancer). Put plainly: NCI 59 cell line panel, single dose. The settings on record: one dose 10.0 μM.
The test system of data set [31] is MDA-MB-468 (Breast Cancer). In words: NCI 59 cell line panel, single dose. The settings on record: MDA-MB-468, one dose 10.0 μM.

As for `NS(=O)(=O)c1cccc(N2C(=O)CCC2=O)c1` [Compound 2, 3-(2,5-Dioxopyrrolidin-1-yl)benzenesulfonamide], the melting point fell in the range of 195 to 197 °C. In [1], the “Mean % increase in paw weight ± SEM” value is reported as 53.2 ± 0.4%; the “% Inhibition of paw oedema from control group” value (“% Inhibition of paw oedema” for short) was 71.2% and 71.2 ± 0.5%. Further, the “PCE (positive cytotoxic effect: cell lines with growth inhibition >10% / total number of cell lines)” value in [2] is listed as 3/59. Moreover, the GI% in data set [3] worked out at 12%. The GI% in [4] is recorded as 12%. The GI% in [5] stood at 13%. Further, in data set [6], the IC50 is over 50000 nM. Moreover, in data set [7], the “SI, selectivity index (COX-1 IC50/COX-2 IC50)” value is reported as over 192.3 and the IC50 was found to be 260 nM.

On to `NS(=O)(=O)c1cccc(N2C(=O)c3ccccc3C2=O)c1` [Compound 4], for which the “Mean % increase in paw weight ± SEM” value in data set [1] came out at 41.0 ± 0.2%. For the same compound, the “% Inhibition of paw oedema” value in data set [1] is 77.8% and 77.8 ± 0.6%. The “Percentage inhibition of paw oedema from control group” value is given as 65.0% in data set [1] (dose 45 mg/kg), 77.8% in data set [1] (dose 65 mg/kg) and 86.2% in data set [1] (dose 80 mg/kg). In data set [1] (from three graded doses (45, 65, 80 mg/kg)), the ED50 came to 45.3 mg/kg. Besides, the “Average number of ulcers” value in data set [8] (mice) worked out at 6. Further, in [8] (mice, ± SEM), the “Mean sum of lengths of elongated ulcer” value is 4.7 ± 0.54 mm. The “level of ulcerogenic activity (in words)” value in data set [8] (relative to diclofenac and celecoxib) was “ulcerogenic level similar to celecoxib and less than that of diclofenac”. In [2], the “PCE (positive cytotoxic effect: cell lines with growth inhibition >10% / total number of cell lines)” value was 3/59. The results for the GI% in data set [3], in [9] and in data set [10] were 16.0%, 18% and 11%, respectively. For the same compound, the IC50 in data set [6] was over 50000 nM; in data set [7], 180 nM. The “SI, selectivity index (COX-1 IC50/COX-2 IC50)” value in data set [7] was over 277.8.

In turn, `Cc1ccc2c(c1)C(=O)N(c1cccc(S(N)(=O)=O)c1)C2=O` [Compound 5, 3-(5-Methyl-1,3-dioxoisoindolin-2-yl)benzenesulfonamide] came in with a melting point of 225 to 226 °C. In data set [1], the “Mean % increase in paw weight ± SEM” value is recorded as 78.1 ± 0.7%; the “% Inhibition of paw oedema” value was 57.7% and 57.7 ± 0.5%. The “PCE (positive cytotoxic effect: cell lines with growth inhibition >10% / total number of cell lines)” value in data set [2] is listed as 5/59. Besides, the GI% in data set [3] stood at 11%. In data set [5], the GI% turned out to be 17%. Besides, the GI% in [11] is 11%. In data set [12], this compound registered a GI% of 11%. The compound also gave a GI% in [13] of 11%. In [6], this compound came in with an IC50 of over 50000 nM. Further, in data set [7], the “SI, selectivity index (COX-1 IC50/COX-2 IC50)” value is reported as over 55.6 and the IC50 is 900 nM.

`Cc1ccc(NC(=O)c2ccc(CN3CCN(C)CC3)cc2)cc1Nc1nccc(-c2cccnc2)n1` [Imatinib]: in data set [2], the “PCE (positive cytotoxic effect: cell lines with growth inhibition >10% / total number of cell lines)” value is listed as 20/59. Further, the GI% in [13] is 10.6%; in data set [14], 18.0%; in data set [15], 12.6%; in data set [16], 14.6%; in data set [17] it was 15.7%; in data set [18] it was 10.6%. Besides, the GI% is 17.1% in data set [19]; 18.6% in data set [20]; 11.5% in data set [21]; 47.1% in data set [22]; 15.1% in [23]; 24.5% in data set [24]. Besides, the GI% worked out at 10.6% in data set [25]; 11.6% in data set [26]; 13.7% in data set [27]; 14.4% in data set [28]; 11.2% in data set [29]; 18.6% in data set [30]. The compound further showed a GI% in [31] of 29.1%.
